{"source": "patent US20030171306A1", "about": "“Cancer treatment method” (priority 2002, published 2003)", "key": {"[1]": {"tested_on": "multiple stage neutrophil progenitors", "assay": "CD15 neutrophil antigen cell-based ELISA (CELISA)", "settings": "for CD15 signal from the cell cultures with increasing concentrations of the drug: anti-neoplastic drug on expanded CD34+ cells, 24 h", "excerpt": "Three methods, more completely described in the following examples, were utilized for a determination of cell survival and ability to produce daughter cells of primary human neutrophil progenitors: (1) a FACS assay which determined the percent of live cells by size and granularity; (2) a colony forming assay which measured the number of CFU-GM progenitors (a specific early stage neutrophil progenitor); and (3) a cell-based ELISA which measured CD15 antigen the value of which was proportional to the number of neutrophil lineage cells. This assay allows evaluation of neutrophil progenitors (cells that can divide and produce daughter neutrophil-lineage cells) at multiple stages of differentiation.\nExpanded CD34^+ stem cells were isolated as described in Example 2 and grown in complete growth media. The expanded CD34^+ cells were treated with DMSO or rolipram plus forskolin as previously described. […] After the treatment, the cells were counted, washed twice with 4 ml of HBSS supplemented with 2% FBS, and resuspended in complete growth media. The expression of CD15 antigen was used as a measure of the number of neutrophil lineage cells expanded from surviving progenitors of multiple stages of differentiation.\nThe cells were plated at a set number into 96-well plates in 100 μl volume per well of complete media. […] The plates were harvested at different time points by centrifuging at 450 G for 10 minutes at room temperature (RT) and the cells were washed several twice in HBSS by centrifugation of the plates. The cells were removed by suspension twice in HBSS with 5 mM EDTA with 100 μl per well and transfer of the total 200 μl volume to capture plates (Costar DNA-bind, #2498) that had been pretreated with 1% gluteraldehyde and stored (Warren et al., 1995 Stem Cells 13:167-174).\nFor CELISA, the preservative solution (PBS, 0.1% BSA, 0.1% azide) was removed from the capture plate and the wells were washed with 100 μl PBS. […] The plates were washed twice with 300 μl PBS/well and incubated with a secondary antibody (goat anti-mouse IgM-biotin, Sigma B-9265, 0.105 μg/well, 100 μl PBS with 5% goat sera) at RT for 60 min. After three to six 200 μl/well washes, strepavidin-horseradish peroxidase (Pierce 21126, 0.1 μg/well in a 1% solution of stable peroxide buffer, Pierce 34062) was added. The plates were incubated for ten minutes and washed three to six times with 200 μl/well. For the final detection step, the chemiluminescent reagent Supersignal® Ultra (Pierce 34075) prepared just prior to use by mixing equal parts of the luminol enhancer and the stable peroxide was added to the plates (100 μl per well) and gently mixed for five minutes at RT. The plates were read on a Wallace Victor II machine for one second for chemiluminescence at 425 nm.\nThe data from the Wallac Victor were transferred to Excel for analysis. Averages of replicate wells from treated cells were calculated along with standard error of the mean (sem) of the counts minus the background signal from replicate wells with media only (no cells)."}, "[2]": {"tested_on": "specific early neutrophil progenitors (CFU-GMs)", "assay": "CFU-GM colony forming assay", "assay_type": "cell-based, human", "settings": "for number of CFU-GM colonies with increasing amounts of the drug: anti-neoplastic drug on expanded CD34+ cells, 24 h, colonies counted after 12 to 14 days", "protocol": "Expanded CD34^+ cells, prepared according to the procedure of Example 2, were isolated and pretreated with DMSO or rolipram plus forskolin as described in Example 2. […] The cells were then plated in a semi solid growth medium for the growth of CFU-GMs following a published method with the exception that the G-CSF (10 ng/ml) was included in place of GM-CSF and erythropoietin (Dornsife, R E et al., Antimicrob Agents Chemother, 35: 322-328, (1991); Dornsife R E; Averett D R., Antimicrob Agents Chemother, 40(2): 514-519, (1996)). The CFU-GMs were counted after 12 to 14 days. The results are depicted in FIG. 3."}, "[3]": {"tested_on": "human HT-29 colon tumor line", "assay": "Tumor cell growth after chemoprotectant regimen and paclitaxel, sulforhodamine B", "assay_type": "cell-based", "settings": "forskolin 100 μM plus PDE4 inhibitor 1 μM, then paclitaxel 100 nM 24 h, versus DMSO", "protocol": "(§1) The human tumor cell lines HT-29 (colon: ATCC #HTB 38), RKO (colon, ATCC #HTB 130), lines A549 (lung, ATCC #CCL 185), and MDA468 (breast, ATCC #HTB 132) were obtained from the American Type Culture Collection and maintained in DMEM containing 10% FBS. Tumor cells were grown at 37° C. in a humidified atmosphere of 5% CO2. Adherent tumor cells were seeded into 96 well plates and incubated for six hours to allow for attachment. After six hours the chemoprotectants forskolin (100 μM) plus rolipram (1 μM) or forskolin (100 μM) plus ariflo (1 μM) were added. After overnight incubation, paclitaxel (100 nM) was added for 24 hours. Cells were then washed free of chemoprotectants and paclitaxel, placed in fresh media, and grown for 5 days. Growth was measured daily using sulforhodamine B (Skehan P. et. al., (1990), J. Nat'l Cancer Inst 82:1107-12). The results are depicted in FIG. 8."}, "[4]": {"tested_on": "human A549 lung tumor line", "assay": "Tumor cell growth after chemoprotectant regimen and paclitaxel, sulforhodamine B", "assay_type": "cell-based", "settings": "for effect of chemoprotectant regimen on paclitaxel inhibition of tumor cell growth: forskolin 100 μM plus PDE4 inhibitor 1 μM, then paclitaxel 100 nM 24 h", "protocol": "as §1"}, "[5]": {"tested_on": "human RKO colon tumor line", "assay": "Tumor cell growth after chemoprotectant regimen and paclitaxel, sulforhodamine B", "assay_type": "cell-based", "settings": "forskolin 100 μM plus PDE4 inhibitor 1 μM, then paclitaxel 100 nM 24 h, versus DMSO", "protocol": "as §1"}, "[6]": {"tested_on": "CCL64 mink lung epithelial cells", "assay": "Protection of mink lung epithelial cells from paclitaxel, sulforhodamine B stain", "assay_type": "cell-based", "settings": "PDE4 inhibitor 1 μM plus forskolin 100 μM 24 h, then paclitaxel 10 nM 48 h", "protocol": "CCL64 mink lung epithelial cells (ATCC #CCL-64) were grown in DMEM supplemented with 10% FBS and 1% penicillin-streptomycin and seeded into 96-well plates. After overnight incubation at 37° C. cells were treated with 100 μM forskolin in combination with each of the PDE4 inhibitors (1 μM). After 24 hours of treatment, paclitaxel was added to wells at various concentrations up to 10 nM. Time zero control plates were harvested by staining with Sulforhodamine B (Skehan P. et. al., (1990), J. Nat'l Cancer Inst 82:1107-12.) After an additional 48 hours of incubation at 37° C., the plates were harvested and stained with sulforhodamine B. The absorbance of the samples was read at the optical density of 562 nm. The no-drug controls were set to 100% and values were normalized to time zero control. As indicated in Example 8, cells were pre-treated with forskolin plus various PDE4 inhibitors (1 μM) and then challenged with paclitaxel at various concentrations. The sulforhodamine B signal from the cells was expressed as percent of control (no-drug, vehicle only). An increase in signal, indicating protection, ranged from 85% to 130% with the cells pre-treated with forskolin plus a particular PDE4 inhibitor and followed by a paclitaxel challenge at 10 nM."}, "[7]": {"tested_on": "expanded CD34+ stem cells", "assay": "Flow cytometric (FACS) evaluation of surviving and apoptotic fractions of expanded CD34+ cells", "assay_type": "cell-based, human", "protocol": "A T-test analysis ([…], with application of either equal or unequal variance [difference in standard error of the mean (sem) < or >3-fold, respectively) was performed to compare between treatment groups to determine if statistically significant differences existed (MS Excel, SAS JMP)."}, "normal progenitor cells": {"tested_on": "normal progenitor cells", "assay": "Cell based assays utilized herein, PDE4 inhibitor used alone", "settings": "without forskolin"}}, "note": "Counter-ions that a name gives are not always drawn."}
{"smiles": "CCC1=C[C@@H]2CN(C1)Cc1c([nH]c3ccccc13)[C@@](C(=O)OC)(c1cc3c(cc1OC)N(C)[C@H]1[C@@](O)(C(=O)OC)[C@H](OC(C)=O)[C@]4(CC)C=CCN5CC[C@]31[C@@H]54)C2", "note": "(relative stereo) [Vinorelbine, 3′,4′-didehydro-4′-deoxy-C′-norvincaleukoblastine [R-(R*,R*)-2,3-dihydroxybutanedioate (1:2)(salt)]]", "values": [{"measurement": "CD15 signal from the cell cultures with increasing concentrations of the drug", "setting": "[1]", "result": "decreased"}]}
{"smiles": "O=c1[nH]cc(F)c(=O)[nH]1", "note": "[5-fluorouracil, 5-fluoro-2,4-(1-H,3H) pyrimidinedione]", "values": [{"measurement": "CD15 signal from the cell cultures with increasing concentrations of the drug", "setting": "[1]", "result": "decreased"}, {"measurement": "number of CFU-GM colonies with increasing amounts of the drug", "setting": "[2]", "result": "decreased in a dose dependent manner"}]}
{"smiles": "COc1ccc([C@]2(C#N)CC[C@@H](C(=O)O)CC2)cc1OC1CCCC1", "note": "[Ariflo, cis-4-cyano-4-[3-(cyclopentyloxy)-4-methoxyphenyl]cyclohexane-1-carboxylic acid]", "values": [{"measurement": "effect of chemoprotectant regimen on paclitaxel inhibition of tumor cell growth", "setting": "[3]", "result": "did not effect the inhibition of tumor cell growth"}, {"measurement": "effect of chemoprotectant regimen on paclitaxel inhibition of tumor cell growth", "setting": "[4]", "result": "no additional protection"}, {"measurement": "effect of chemoprotectant regimen on paclitaxel inhibition of tumor cell growth", "setting": "[5]", "result": "did not effect the inhibition of tumor cell growth"}, {"measurement": "Sulforhodamine B signal (survival) as percent of no-drug control", "setting": "[6]", "result": 110, "unit": "%"}]}
{"smiles": "COC(=O)c1cccc(-n2c(=O)n(Cc3ccccc3)c(=O)c3cccnc32)c1", "note": "[CP-77059]", "values": [{"measurement": "Sulforhodamine B signal (survival) as percent of no-drug control", "setting": "[6]", "result": 85, "unit": "%"}]}
{"smiles": "CCCCn1c(=O)c2c(ncn2CC(C)=O)n(CCCC)c1=O", "note": "[Denbufylline, 7-acetonyl,1,3dibutylxanthine]", "values": [{"measurement": "Sulforhodamine B signal (survival) as percent of no-drug control", "setting": "[6]", "result": 95, "unit": "%"}]}
{"smiles": "COc1cc([C@@H]2c3cc4c(cc3[C@@H](O[C@@H]3O[C@@H]5CO[C@@H](C)O[C@H]5[C@H](O)[C@H]3O)[C@H]3COC(=O)[C@H]23)OCO4)cc(OC)c1O", "note": "[Etoposide, 4′-demethyl-epipodophyllotoxin 9[4,6-0-(R)-ethylidene-β-D-glucopyranoside]]", "values": [{"measurement": "CD15 signal from the cell cultures with increasing concentrations of the drug", "setting": "[1]", "result": "decreased"}, {"measurement": "number of CFU-GM colonies with increasing amounts of the drug", "setting": "[2]", "result": "decreased in a dose dependent manner"}]}
{"smiles": "COC(=O)N1C[C@@H](c2ccc(OC)c(OC3CCCC3)c2)[C@](C)(C(C)=O)C1", "note": "[GI193600X]", "values": [{"measurement": "Sulforhodamine B signal (survival) as percent of no-drug control", "setting": "[6]", "result": 120, "unit": "%"}]}
{"smiles": "CCn1c(=O)c2ccccc2n(-c2cccc([N+](=O)[O-])c2)c1=O", "note": "[Nitraquazone]", "values": [{"measurement": "Sulforhodamine B signal (survival) as percent of no-drug control", "setting": "[6]", "result": 115, "unit": "%"}]}
{"smiles": "CC(=O)O[C@H]1C(=O)[C@@]2(C)[C@H]([C@H](OC(=O)c3ccccc3)[C@]3(O)C[C@H](OC(=O)[C@H](O)[C@@H](NC(=O)c4ccccc4)c4ccccc4)C(C)=C1C3(C)C)[C@]1(OC(C)=O)CO[C@@H]1C[C@@H]2O", "note": "[Paclitaxel, 5β,20-epoxy-1,2α,4,7β,10β,13α-hexa-hydroxytax-11-en-9-one 4,10-diacetate 2-benzoate 13-ester with (2R,3S)-N-benzoyl-3-phenylisoserine]", "values": [{"measurement": "inhibition of tumor cell growth", "setting": "[4]; paclitaxel 100 nM 24 h", "result": "not completely inhibited"}, {"measurement": "surviving cell fraction", "setting": "[7]; DMSO pretreatment only 24 h, then paclitaxel 30 nM 24 h", "result": 45, "unit": "%"}, {"measurement": "surviving cell fraction", "setting": "[7]; DMSO pretreatment only 24 h, then paclitaxel 100 nM 24 h", "result": 27, "unit": "%"}, {"measurement": "surviving cell fraction", "setting": "[7]; DMSO pretreatment only 24 h, then paclitaxel 300 nM 24 h", "result": 23, "unit": "%"}, {"measurement": "surviving cell fraction", "setting": "[7]; DMSO pretreatment only 24 h, then paclitaxel 600 nM 24 h", "result": 18, "unit": "%"}, {"measurement": "CD15 signal from the cell cultures with increasing concentrations of the drug", "setting": "[1]", "result": "decreased"}, {"measurement": "number of CFU-GM colonies with increasing amounts of the drug", "setting": "[2]", "result": "did not exhibit a good dose response"}]}
{"smiles": "COc1ccc(C(=O)Nc2c(Cl)cncc2Cl)cc1OC1CCCC1", "note": "[Piclamilast, N-(3,5-dichloropyrid-4-yl)-3-cyclopentyloxy-4-methoxybenzamide]", "values": [{"measurement": "Sulforhodamine B signal (survival) as percent of no-drug control", "setting": "[6]", "result": 130, "unit": "%"}]}
{"smiles": "O=c1c2cccnc2n(-c2cccc([N+](=O)[O-])c2)c(=O)n1Cc1ccncc1", "note": "[RS-25344]", "values": [{"measurement": "Sulforhodamine B signal (survival) as percent of no-drug control", "setting": "[6]", "result": 105, "unit": "%"}]}
{"smiles": "COc1ccc(C2CNC(=O)C2)cc1OC1CCCC1", "note": "(stereo not shown) [Rolipram]", "values": [{"measurement": "effect of chemoprotectant regimen on paclitaxel inhibition of tumor cell growth", "setting": "[3]", "result": "did not effect the inhibition of tumor cell growth"}, {"measurement": "effect of chemoprotectant regimen on paclitaxel inhibition of tumor cell growth", "setting": "[4]", "result": "no additional protection"}, {"measurement": "effect of chemoprotectant regimen on paclitaxel inhibition of tumor cell growth", "setting": "[5]", "result": "did not effect the inhibition of tumor cell growth"}, {"measurement": "apoptotic fraction in paclitaxel treated cells compared with DMSO pretreatment", "setting": "[7]; pretreatment with rolipram plus forskolin", "result": "significantly reduced the apoptotic fraction"}, {"measurement": "surviving cell fraction", "setting": "[7]; rolipram 1 μM plus forskolin 100 μM 24 h, then paclitaxel 30 nM 24 h", "result": 86, "unit": "%"}, {"measurement": "surviving cell fraction", "setting": "[7]; rolipram 1 μM plus forskolin 100 μM 24 h, then paclitaxel 100 nM 24 h", "result": 81, "unit": "%"}, {"measurement": "surviving cell fraction", "setting": "[7]; rolipram 1 μM plus forskolin 100 μM 24 h, then paclitaxel 300 nM 24 h", "result": 63, "unit": "%"}, {"measurement": "surviving cell fraction", "setting": "[7]; rolipram 1 μM plus forskolin 100 μM 24 h, then paclitaxel 600 nM 24 h", "result": 59, "unit": "%"}, {"measurement": "effect of pretreatment on toxicity towards neutrophil progenitors compared to DMSO", "setting": "[1]; rolipram plus forskolin, then carboplatin", "result": "no significant difference"}, {"measurement": "effect of pretreatment on toxicity towards neutrophil progenitors compared to DMSO", "setting": "[1]; rolipram plus forskolin, then cisplatin", "result": "significantly increase the toxicity"}, {"measurement": "effect of pretreatment on toxicity towards neutrophil progenitors compared to DMSO", "setting": "[1]; rolipram plus forskolin, then doxorubicin", "result": "significantly increase the toxicity"}, {"measurement": "CD15 signal after pretreatment versus DMSO", "setting": "[1]; rolipram plus forskolin, then paclitaxel, 5-FU, etoposide, vinblastine, vinorelbine, methotrexate or topotecan, 99% confidence", "result": "increased the CD15 signal antigen to a statistically significant level"}, {"measurement": "protective effect", "setting": "normal progenitor cells", "result": "little protective effect"}, {"measurement": "survival of CFU-GM progenitors", "setting": "[2]; rolipram plus forskolin prior to 5-fluorouracil, etoposide or paclitaxel, versus DMSO", "result": "increased the survival of CFU-GM progenitors"}, {"measurement": "Sulforhodamine B signal (survival) as percent of no-drug control", "setting": "[6]", "result": 110, "unit": "%"}]}
{"smiles": "CC[C@]1(O)C[C@@H]2CN(CCc3c([nH]c4ccccc34)[C@@](C(=O)OC)(c3cc4c(cc3OC)N(C)[C@H]3[C@@](O)(C(=O)OC)[C@H](OC(C)=O)[C@]5(CC)C=CCN6CC[C@]43[C@@H]65)C2)C1", "note": "[Vinblastine, vincaleukoblastine sulfate]", "values": [{"measurement": "CD15 signal from the cell cultures with increasing concentrations of the drug", "setting": "[1]", "result": "decreased"}]}
{"smiles": "CN(Cc1cnc2nc(N)nc(N)c2n1)c1ccc(C(=O)N[C@@H](CCC(=O)O)C(=O)O)cc1", "note": "[methotrexate, N-[4[[(2,4-diamino-6-pteridinyl)methyl]methylamino]benzoyl]-L-glutamic acid]", "values": [{"measurement": "CD15 signal from the cell cultures with increasing concentrations of the drug", "setting": "[1]", "result": "decreased"}]}
{"smiles": "CC[C@@]1(O)C(=O)OCc2c1cc1n(c2=O)Cc2cc3c(CN(C)C)c(O)ccc3nc2-1", "note": "[topotecan, (S)-10-[(dimethylamino)methyl]-4-ethyl-4,9-dihydroxy-1H-pyrano[3′,4′,6,7]indolizino[1,2-b]quinoline-3,14(4H,12H)-dione monohydrochloride]", "values": [{"measurement": "CD15 signal from the cell cultures with increasing concentrations of the drug", "setting": "[1]", "result": "decreased"}]}
